Measurements as given in PubChem BioAssay AID274 (DTP/NCI, 2004).
Values joined by “and” are separate entries in the source; they are usually repeats but may differ in a detail not shown here. Equal values may be shown once. Toxic doses and inconclusive results are not listed. The calls were made as follows: active = survival T/C of 150% or more; inactive = T/C below 125% in these data.

Tested on: BDF1 mice, Lewis lung carcinoma iv, survival T/C
Test: NCI In Vivo Anticancer Drug Screen. Data for tumor model Lewis Lung Carcinoma (intravenous) in B6D2F1 (BDF1) mice
Settings: endpoint: median survival time, schedule: Q01DX009 (ip), higher = longer survival
Protocol: The antitumor activity of compounds was measured in mice bearing transplantable tumors. Survival or tumor size were measured and the results are expressed as the measurement made in the treated group (T) divided by the measurement made in the vehicle treated control group (C). The tumor model used in this assay is Lewis Lung Carcinoma (intravenous) in B6D2F1 (BDF1) mice

[1] = dose: 50.0 mg/kg/injection, vehicle: saline with Tween-80
[2] = dose: 100.0 mg/kg/injection, vehicle: saline with Tween-80
[3] = dose: 200.0 mg/kg/injection, vehicle: saline with Tween-80
[4] = dose: 400.0 mg/kg/injection, vehicle: saline with Tween-80
[5] = dose: 6.25 mg/kg/injection, vehicle: Klucel (hydroxypropylcellulose) (HPC)
[6] = dose: 12.5 mg/kg/injection, vehicle: Klucel (hydroxypropylcellulose) (HPC)
[7] = dose: 25.0 mg/kg/injection, vehicle: Klucel (hydroxypropylcellulose) (HPC)
[8] = dose: 50.0 mg/kg/injection, vehicle: Klucel (hydroxypropylcellulose) (HPC)
[9] = dose: 100.0 mg/kg/injection, vehicle: Klucel (hydroxypropylcellulose) (HPC)
[10] = dose: 25.0 mg/kg/injection, vehicle: saline with Tween-80
[11] = dose: 12.5 mg/kg/injection, vehicle: saline with Tween-80
[12] = dose: 0.25 mg/kg/injection, vehicle: saline
[13] = dose: 0.5 mg/kg/injection, vehicle: saline
[14] = dose: 1.0 mg/kg/injection, vehicle: saline
[15] = dose: 2.0 mg/kg/injection, vehicle: saline

Measured: T/C

CCOC(=O)NC(N)=O
inactive: [1] 97 % of control | [2] 100 % of control | [3] 122 % of control | [4] 107 % of control

C=C(C)[C@@H]1CCc2c(O)c(O)c(=O)cc(C)c2C1
inactive: dose: 3.12 mg/kg/injection, vehicle: saline 111 % of control | dose: 6.25 mg/kg/injection, vehicle: saline 106 % of control | dose: 12.5 mg/kg/injection, vehicle: saline 96 % of control | dose: 25.0 mg/kg/injection, vehicle: saline 101 % of control | dose: 50.0 mg/kg/injection, vehicle: saline 102 % of control | dose: 100.0 mg/kg/injection, vehicle: saline 101 % of control

NC(=O)c1[nH]nc(C2OC(CO)C(O)C2O)c1O (stereo not drawn)
inactive: dose: 78.13 micrograms/kg/injection, vehicle: water 98 % of control | dose: 156.25 micrograms/kg/injection, vehicle: water 118 % of control | dose: 312.5 micrograms/kg/injection, vehicle: water 87 % of control | dose: 625.0 micrograms/kg/injection, vehicle: water 122 % of control

COc1ccc2[nH]c3c(c2c1)CCNC3CC(C)CCC=C(C)C (stereo not drawn)
inactive: [5] 116 % of control | [6] 98 % of control | [7] 102 % of control | [8] 95 % of control | [9] 107 % of control

CC1CCC(n2cnc3c(Cl)ncnc32)O1 (stereo not drawn)
inactive: dose: 12.0 mg/kg/injection, vehicle: Klucel (hydroxypropylcellulose) (HPC) 100 % of control | [7] 109 % of control | [8] 98 % of control | [9] 104 % of control | dose: 200.0 mg/kg/injection, vehicle: Klucel (hydroxypropylcellulose) (HPC) 96 % of control

O=c1cc[nH]c(=O)[nH]1
inactive: dose: 32.0 mg/kg/injection, vehicle: Klucel (hydroxypropylcellulose) (HPC) 105 % of control | dose: 64.0 mg/kg/injection, vehicle: Klucel (hydroxypropylcellulose) (HPC) 96 % of control | dose: 128.0 mg/kg/injection, vehicle: Klucel (hydroxypropylcellulose) (HPC) 102 % of control | dose: 256.0 mg/kg/injection, vehicle: Klucel (hydroxypropylcellulose) (HPC) 86 % of control | dose: 512.0 mg/kg/injection, vehicle: Klucel (hydroxypropylcellulose) (HPC) 111 % of control

O=[n+]1c2c(n([O-])c3ccccc31)-c1cccc3cccc-2c13
inactive: [10] 100 % of control | [1] 104 % of control | [2] 105 % of control

C=C(C)C(=O)OCC1CO1 (stereo not drawn)
inactive: [8] 88 % of control | [9] 105 % of control

COC1/C=C/O[C@@]2(C)Oc3c(C)c(O)c4c(O)c(cc(O)c4c3C2=O)NC(=O)/C(C)=C\C=C\[C@H](C)C(O)[C@@H](C)[C@@H](O)[C@@H](C)[C@H](OC(C)=O)[C@@H]1C (stereo partly drawn)
inactive: [11] 102 % of control | [10] 101 % of control | [1] 103 % of control | [2] 107 % of control | [3] 102 % of control | [4] 111 % of control

OC(C1CO1)C(O)C1CO1 (stereo not drawn)
inactive: [12] 93 % of control | [13] 94 % of control and 107 % of control | [14] 100 % of control and 113 % of control | [15] 95 % of control | dose: 4.0 mg/kg/injection, vehicle: saline 121 % of control

Nc1nc(=S)c2[nH]cnc2[nH]1
inactive: [12] 105 % of control | [13] 114 % of control | [14] 107 % of control | [15] 92 % of control

CN1C(=O)C(=Cc2ccc(O)cc2)C(=O)N(C)C1=O
inactive: [11] 101 % of control | [10] 105 % of control | [1] 106 % of control | [2] 99 % of control | [3] 101 % of control | [4] 96 % of control

Cc1c2ccncc2c(C)c2c1[nH]c1ccccc12
inactive: [5] 111 % of control | [6] 93 % of control | [7] 105 % of control

CC(=O)NC(C=O)OCC=O (stereo not drawn)
inactive: dose: 6.25 mg/kg/injection, vehicle: water 101 % of control | dose: 12.5 mg/kg/injection, vehicle: water 110 % of control | dose: 25.0 mg/kg/injection, vehicle: water 102 % of control | dose: 50.0 mg/kg/injection, vehicle: water 111 % of control | dose: 100.0 mg/kg/injection, vehicle: water 106 % of control

CCN(C)N=Nc1ccc(C(N)=O)cc1
inactive: [5] 104 % of control | [6] 102 % of control | [7] 109 % of control | [8] 122 % of control | [9] 87 % of control
